Results as given in US9593123B2, “Triazolo[4,5-D]pyrimidine derivatives” (Hoffmann-La Roche Inc., priority 2013, dated 2017).

Key:
human CB2 receptor = human CB2 receptor (Homo sapiens (Human), UniProt P34972); test: cAMP assay, CHO cells expressing human CB2 receptors; type: cell-based; details: functional cAMP assay, read-out: CB2 hcAMP EC50
Experimental: (§1) CHO cells expressing human CB1 or CB2 receptors are seeded 17-24 hours prior to the experiment 50.000 cells per well in a black 96 well plate with flat clear bottom (Corning Costar #3904) in DMEM (Invitrogen No. 31331), 1×HT supplement, with 10% fetal calf serum and incubated at 5% CO2 and 37° C. in a humidified incubator. The growth medium was exchanged with Krebs Ringer Bicarbonate buffer with 1 mM IBMX and incubated at 30° C. for 30 min. Compounds were added to a final assay volume of 100 μl and incubated for 30 min at 30° C. Using the cAMP-Nano-TRF detection kit the assay (Roche Diagnostics) was stopped by the addition of 50 μl lysis reagent (Tris, NaCl, 1.5% Triton X100, 2.5% NP40, 10% NaN3) and 50 μl detection solutions (20 μM mAb Alexa700-cAMP 1:1, and 48 μM Ruthenium-2-AHA-cAMP) and shaken for 2 h at room temperature. The time-resolved energy transfer is measured by a TRF reader (Evotec Technologies GmbH), equipped with a ND:YAG laser as excitation source. The plate is measured twice with the excitation at 355 nm and at the emission with a delay of 100 ns and a gate of 100 ns, total exposure time 10 s at 730 (bandwidth 30 nm) or 645 nm (bandwidth 75 nm), respectively. The FRET signal is calculated as follows: FRET=T730-Alexa730-P(T645-B645) with P=Ru730-B730/Ru645-B645, where T730 is the test well measured at 730 nM, T645 is the test well measured at 645 nm, B730 and B645 are the buffer controls at 730 nm and 645 nm, respectively. cAMP content is determined from the function of a standard curve spanning from 10 μM to 0.13 nM cAMP.
(§2) EC50 values were determined using Activity Base analysis (ID Business Solution, Limited). The EC50 values for a wide range of cannabinoid agonists generated from this assay were in agreement with the values published in the scientific literature.

human CB1 receptor = human CB1 receptor (Homo sapiens (Human), UniProt P21554); test: cAMP assay, CHO cells expressing human CB1 receptors; type: cell-based; details: functional cAMP assay, read-out: CB1 hcAMP EC50
human CB1 receptor, sequence (P21554 whole entry): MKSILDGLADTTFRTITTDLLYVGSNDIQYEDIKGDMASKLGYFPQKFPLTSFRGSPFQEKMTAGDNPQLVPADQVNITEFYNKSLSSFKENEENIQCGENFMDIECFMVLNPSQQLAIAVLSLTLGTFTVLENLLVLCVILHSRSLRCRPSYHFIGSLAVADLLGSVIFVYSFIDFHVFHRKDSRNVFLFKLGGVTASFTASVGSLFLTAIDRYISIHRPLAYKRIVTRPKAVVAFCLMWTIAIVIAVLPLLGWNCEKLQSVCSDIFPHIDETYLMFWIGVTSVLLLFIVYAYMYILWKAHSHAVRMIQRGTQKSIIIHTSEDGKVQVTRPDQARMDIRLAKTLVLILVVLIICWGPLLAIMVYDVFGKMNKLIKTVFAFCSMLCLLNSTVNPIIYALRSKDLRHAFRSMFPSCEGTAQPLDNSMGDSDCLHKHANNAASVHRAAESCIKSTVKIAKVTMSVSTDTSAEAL
Experimental: as §1, §2

human CB2 receptor, sequence (P34972 whole entry): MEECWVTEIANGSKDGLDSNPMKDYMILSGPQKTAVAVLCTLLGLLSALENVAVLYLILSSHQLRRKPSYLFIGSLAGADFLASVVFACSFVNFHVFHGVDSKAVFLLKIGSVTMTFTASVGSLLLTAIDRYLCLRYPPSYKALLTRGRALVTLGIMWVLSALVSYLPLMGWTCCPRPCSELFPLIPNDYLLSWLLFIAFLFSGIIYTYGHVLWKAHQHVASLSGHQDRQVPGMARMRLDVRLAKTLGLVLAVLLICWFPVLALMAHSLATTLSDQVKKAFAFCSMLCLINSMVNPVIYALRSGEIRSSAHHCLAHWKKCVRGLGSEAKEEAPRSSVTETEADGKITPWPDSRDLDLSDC

`COCCS(=O)(=O)c1nc(N2CCC(F)(F)C2)c2nnn(Cc3ccccc3Cl)c2n1` [Example 96, 3-[(2-Chlorophenyl)methyl]-7-(3,3-difluoropyrrolidin-1-yl)-5-(2-methoxyethylsulfonyl)triazolo[4,5-d]pyrimidine] was tested, and the EC50 (human CB2 receptor) was 5.1 nM and the EC50 (human CB1 receptor) was > 10000 nM.
With `FC(F)(F)CSc1nc(N2CCC(F)(F)C2)c2nnn(Cc3ccccc3Cl)c2n1` [Example 83, 3-[(2-Chlorophenyl)methyl]-7-(3,3-difluoropyrrolidin-1-yl)-5-(2,2,2-trifluoroethylsulfanyl)triazolo[4,5-d]pyrimidine] the EC50 (human CB2 receptor) was 1.9 nM and the EC50 (human CB1 receptor) was > 10000 nM.
For `C[C@@]1(O)CCN(c2nc(N3CCOCC3)nc3c2nnn3Cc2ccccc2Cl)C1` [Example 36, (3R)-1-[3-[(2-Chlorophenyl)methyl]-5-morpholin-4-yltriazolo[4,5-d]pyrimidin-7-yl]-3-methylpyrrolidin-3-ol], the EC50 (human CB2 receptor) was 220 nM and the EC50 (human CB1 receptor) was > 10000 nM.
`COc1ccc(Cn2nnc3c(N4CCC(F)(F)C4)nc(NC(C)(C)C)nc32)cc1` [Example 20, N-tert-Butyl-7-(3,3-difluoropyrrolidin-1-yl)-3-[(4-methoxyphenyl)methyl]triazolo [4,5-d]pyrimidin-5-amine] was tested, and the EC50 (human CB2 receptor) was 20.3 nM and the EC50 (human CB1 receptor) was > 10000 nM.
In the case of `Cc1nonc1Cn1nnc2c(N3CCC(F)(F)C3)nc(OCC(C)(C)C)nc21` [Example 67, 3-[[7-(3,3-Difluoropyrrolidin-1-yl)-5-(2,2-dimethylpropoxy)triazolo[4,5-d]pyrimidin-3-yl]methyl]-4-methyl-1,2,5-oxadiazole], the EC50 (human CB2 receptor) is reported as 1.7 nM and the EC50 (human CB1 receptor) is reported as > 10000 nM.
In the case of `FC1(F)CCN(c2nc(OCC3CC3)nc3c2nnn3Cc2ccccc2Cl)C1` [Example 47, 3-[(2-Chlorophenyl)methyl]-5-(cyclopropylmethoxy)-7-(3,3-difluoropyrrolidin-1-yl)triazolo[4,5-d]pyrimidine], the EC50 (human CB2 receptor) is reported as 3.6 nM and the EC50 (human CB1 receptor) is reported as > 10000 nM.
Work on `CCSc1nc(N2CCC(F)(F)C2)c2nnn(Cc3ccccc3Cl)c2n1` [Example 82, 3-[(2-Chlorophenyl)methyl]-7-(3,3-difluoropyrrolidin-1-yl)-5-ethylsulfanyltriazolo [4,5-d]pyrimidine] yielded an EC50 (human CB2 receptor) of 0.7 nM and an EC50 (human CB1 receptor) of 183 nM.
In the case of `CCNc1nc(N2CCC(F)(F)C2)c2nnn(Cc3ccccc3Cl)c2n1` [Example 8, 3-[(2-Chlorophenyl)methyl]-7-(3,3-difluoropyrrolidin-1-yl)-N-ethyltriazolo[4,5-d]pyrimidin-5-amine], the EC50 (human CB2 receptor) is reported as 4.5 nM and the EC50 (human CB1 receptor) is reported as > 10000 nM.
`CC(C)(C)Nc1nc(N2CCC(F)(F)C2)c2nnn(Cc3ccccc3S(C)(=O)=O)c2n1` [Example 23, N-tert-Butyl-7-(3,3-difluoropyrrolidin-1-yl)-3-[(2-methylsulfonylphenyl)methyl]triazolo[4,5-d]pyrimidin-5-amine] showed an EC50 (human CB2 receptor) of 1.1 nM and an EC50 (human CB1 receptor) of 487 nM.
For `C[C@H](Oc1nc(N2CCC(F)(F)C2)c2nnn(Cc3ccccc3C(F)(F)F)c2n1)C(F)(F)F` [Example 68, 7-(3,3-Difluoropyrrolidin-1-yl)-3-[[2-(trifluoromethyl)phenyl]methyl]-5-[(2S)-1,1,1-trifluoropropan-2-yl]oxytriazolo[4,5-d]pyrimidine], the EC50 (human CB2 receptor) was 0.4 nM and the EC50 (human CB1 receptor) was > 10000 nM.
`COc1ccc(Cn2nnc3c(N4CC[C@@](C)(O)C4)nc(NC(C)(C)C)nc32)cc1` [Example 31, (3R)-1-[5-(tert-Butylamino)-3-[(4-methoxyphenyl)methyl]triazolo[4,5-d]pyrimidin-7-yl]-3-methylpyrrolidin-3-ol] was tested, and the EC50 (human CB2 receptor) was 56 nM and the EC50 (human CB1 receptor) was > 10000 nM.
In the case of `COc1ccc(Cn2nnc3c(N4CC[C@H](O)C4)nc(NC(C)(C)C)nc32)cc1` [Example 19, (3S)-1-[5-(tert-Butylamino)-3-[(4-methoxyphenyl)methyl]triazolo[4,5-d]pyrimidin-7-yl]pyrrolidin-3-ol], the EC50 (human CB2 receptor) is reported as 27.4 nM and the EC50 (human CB1 receptor) is reported as > 10000 nM.
For `FC1(F)CCN(c2nc(C3CC3)nc3c2nnn3Cc2ccccc2Cl)C1` [Example 4, 3-[(2-Chlorophenyl)methyl]-5-cyclopropyl-7-(3,3-difluoropyrrolidin-1-yl)triazolo[4,5-d]pyrimidine], the EC50 (human CB2 receptor) was 1 nM and the EC50 (human CB1 receptor) was 750 nM.
In the case of `CCCCOc1nc(N2CCC(F)(F)C2)c2nnn(Cc3ccccc3Cl)c2n1` [Example 45, 5-Butoxy-3-[(2-chlorophenyl)methyl]-7-(3,3-difluoropyrrolidin-1-yl)triazolo[4,5-d]pyrimidine], the EC50 (human CB2 receptor) is reported as 1.2 nM and the EC50 (human CB1 receptor) is reported as > 10000 nM.
In the case of `Cc1nonc1Cn1nnc2c(N3CCC(F)(F)C3)nc(C3CC3)nc21` [Example 5, 3-[[5-Cyclopropyl-7-(3,3-difluoropyrrolidin-1-yl)triazolo[4,5-d]pyrimidin-3-yl]methyl]-4-methyl-1,2,5-oxadiazole], the EC50 (human CB2 receptor) is reported as 1 nM and the EC50 (human CB1 receptor) is reported as > 10000 nM.
In the case of `CC(C)(C)Sc1nc(N2CCC(F)(F)C2)c2nnn(Cc3ccccc3Cl)c2n1` [Example 85, 5-tert-Butylsulfanyl-3-[(2-chlorophenyl)methyl]-7-(3,3-difluoropyrrolidin-1-yl)triazolo[4,5-d]pyrimidine], the EC50 (human CB2 receptor) is reported as 0.9 nM and the EC50 (human CB1 receptor) is reported as 108 nM.
With `CC(C)(C)COc1nc(N2CCC(F)(F)C2)c2nnn(Cc3ccccc3Cl)c2n1` [Example 52, 3-[(2-Chlorophenyl)methyl]-7-(3,3-difluoropyrrolidin-1-yl)-5-(2,2-dimethylpropoxy) triazolo[4,5-d]pyrimidine] the EC50 (human CB2 receptor) was 0.8 nM and the EC50 (human CB1 receptor) was > 10000 nM.
With `C[C@H](Oc1nc(N2CCC(F)(F)C2)c2nnn(CCC(F)(F)F)c2n1)C(F)(F)F` [Example 75, 7-(3,3-Difluoropyrrolidin-1-yl)-5-[(2S)-1,1,1-trifluoropropan-2-yl]oxy-3-(3,3,3-trifluoropropyl)triazolo[4,5-d]pyrimidine] the EC50 (human CB2 receptor) was 4.3 nM and the EC50 (human CB1 receptor) was > 10000 nM.
`OCCSc1nc(N2CCC(F)(F)C2)c2nnn(Cc3ccccc3Cl)c2n1` [Example 89, 2-[3-[(2-Chlorophenyl)methyl]-7-(3,3-difluoropyrrolidin-1-yl)triazolo[4,5-d]pyrimidin-5-yl]sulfanylethanol] was tested, and the EC50 (human CB2 receptor) was 7.4 nM and the EC50 (human CB1 receptor) was > 10000 nM.
With `O=S(=O)(Cc1ccccc1)c1nc(N2CCC(F)(F)C2)c2nnn(Cc3ccccc3Cl)c2n1` [Example 87, 5-Benzylsulfonyl-3-[(2-chlorophenyl)methyl]-7-(3,3-difluoropyrrolidin-1-yl)triazolo [4,5-d]pyrimidine] the EC50 (human CB2 receptor) was 83 nM and the EC50 (human CB1 receptor) was > 10000 nM.
With `CC1(Nc2nc(N3CCC(F)(F)C3)c3nnn(Cc4ccccc4Cl)c3n2)COC1` [Example 13, 3-[(2-Chlorophenyl)methyl]-7-(3,3-difluoropyrrolidin-1-yl)-N-(3-methyloxetan-3-yl)triazolo[4,5-d]pyrimidin-5-amine] the EC50 (human CB2 receptor) was 12.5 nM and the EC50 (human CB1 receptor) was > 10000 nM.
`CCCCS(=O)(=O)c1nc(N2CCC(F)(F)C2)c2nnn(Cc3ccccc3Cl)c2n1` [Example 93, 5-Butylsulfonyl-3-[(2-chlorophenyl)methyl]-7-(3,3-difluoropyrrolidin-1-yl)triazolo [4,5-d]pyrimidine] was tested, and the EC50 (human CB2 receptor) was 8.8 nM and the EC50 (human CB1 receptor) was > 10000 nM.
`CC(C)(C)Nc1nc(N2CCC(F)(F)C2)c2nnn(Cc3ccccc3C(F)(F)F)c2n1` [Example 22, N-tert-Butyl-7-(3,3-difluoropyrrolidin-1-yl)-3-[[2-(trifluoromethyl)phenyl]methyl]triazolo[4,5-d]pyrimidin-5-amine] was tested, and the EC50 (human CB2 receptor) was 2.1 nM and the EC50 (human CB1 receptor) was > 10000 nM.
With `Cc1noc(Cn2nnc3c(N4CC[C@](C)(O)C4)nc(N4CCOCC4)nc32)n1` [Example 35, (3S)-3-Methyl-1-[3-[(3-methyl-1,2,4-oxadiazol-5-yl)methyl]-5-morpholin-4-yltriazolo[4,5-d]pyrimidin-7-yl]pyrrolidin-3-ol] the EC50 (human CB2 receptor) was 10.8 nM and the EC50 (human CB1 receptor) was > 10000 nM.
For `C[C@@]1(O)CCN(c2nc(N3CCOCC3)nc3c2nnn3Cc2ccccc2S(C)(=O)=O)C1` [Example 38, (3R)-3-Methyl-1-[3-[(2-methylsulfonylphenyl)methyl]-5-morpholin-4-yltriazolo[4,5-d]pyrimidin-7-yl]pyrrolidin-3-ol], the EC50 (human CB2 receptor) was 312 nM and the EC50 (human CB1 receptor) was > 10000 nM.
With `FCCOc1nc(N2CCC(F)(F)C2)c2nnn(Cc3ccccc3Cl)c2n1` [Example 46, 3-[(2-Chlorophenyl)methyl]-7-(3,3-difluoropyrrolidin-1-yl)-5-(2-fluoroethoxy) triazolo[4,5-d]pyrimidine] the EC50 (human CB2 receptor) was 5.3 nM and the EC50 (human CB1 receptor) was > 10000 nM.
With `C[C@]1(O)CCN(c2nc(N3CCOCC3)nc3c2nnn3Cc2ncccc2Cl)C1` [Example 34, (3S)-1-[3-[(3-chloropyridin-2-yl)methyl]-5-morpholin-4-yltriazolo[4,5-d]pyrimidin-7-yl]-3-methylpyrrolidin-3-ol] the EC50 (human CB2 receptor) was 45.3 nM and the EC50 (human CB1 receptor) was > 10000 nM.
